Source: patent US6835382B2, “Ii peptide therapeutics to enhance antigen presentation” (University of Massachusetts, priority 1996, dated 2004)
Values belong to the substance of their own block, whether it stands above or below them. Positions of bridges follow the written chain, without caps; N, C: chain ends. Non-standard residues stand in square brackets, D forms with d. No end group written: not given here. hArg = N=C(N)NCCCC[C@H](N)C(=O)O; Cit = NC(=O)NCCC[C@H](N)C(=O)O

Legend:
[1] = target: T1, murine E^d MHC class II allele (Mus musculus, UniProt P01904+P01915); experiment: processed antigen assay, E^d allele (APC pulsed with native HEL); type: cell-based; parameters: The A20 and CH27 B cell lymphoma lines express H-2^d and H-2^k alleles, respectively; endogenous in cells; host or cells: A20 B cell lymphoma (mitomycin C-treated or paraformaldehyde-fixed); details: AE peptide 64 μM; for T cell response relative to baseline (None = 1.00), E^d: Table 31, native HEL prepulse 10 μM; for T cell response relative to baseline (None = 1.00), E^d / T cell response relative to baseline (None = 1.0), E^d: supernatant dilution 1:4; for T cell response relative to baseline (None = 1.0), E^d: Table 32, native HEL prepulse 20 μM; for Activity in processed antigen assay, E^d (baseline = 1.0): Table 34, native HEL 10 μM prepulse, supernatant 1:8
T1 sequence (P01904 26-255): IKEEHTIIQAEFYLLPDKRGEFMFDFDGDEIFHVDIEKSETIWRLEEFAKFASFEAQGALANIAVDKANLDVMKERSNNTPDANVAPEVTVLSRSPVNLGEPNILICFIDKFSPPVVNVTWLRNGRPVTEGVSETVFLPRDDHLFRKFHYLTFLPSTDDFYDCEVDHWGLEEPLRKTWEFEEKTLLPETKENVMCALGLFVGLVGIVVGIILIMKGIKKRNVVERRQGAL
T1 sequence (P01915 27-264 limits assumed): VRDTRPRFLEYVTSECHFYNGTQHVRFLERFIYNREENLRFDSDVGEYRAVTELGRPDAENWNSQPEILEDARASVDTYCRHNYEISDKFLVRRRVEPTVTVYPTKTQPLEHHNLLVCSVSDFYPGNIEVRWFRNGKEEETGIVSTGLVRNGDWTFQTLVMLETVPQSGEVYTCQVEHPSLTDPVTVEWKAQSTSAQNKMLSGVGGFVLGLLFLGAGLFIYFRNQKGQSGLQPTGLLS
Protocol: In a third type of assay, the “processed antigen assay”, certain of the AE101 series of peptides inhibit stimulation of specific T cell hybridomas by antigenic peptides which are derived from the endogenous processing of a native protein antigen. This assay, which is related to the peptide prepulse assay, is performed by incubating APC with native protein antigen for 8 h, after which the pulsed APC are washed and treated with mitomycin C. Those pulsed APC are then combined with AE101 series peptides and T cell hybridomas and are incubated for 24 h. After that incubation, an aliquot of the culture supernatant is transferred to a second culture to measure T cell stimulation, as reflected in the effect of released interleukins on the growth of an interleukin-dependent, indicator cell line. During the 8 h incubation with native protein antigen, the protein antigen is taken into the APC. The native protein enters the processing pathway within the APC, where it is enzymatically cleaved to peptide fragments. Those peptide fragments with high affinity for the particular MHC class II molecules produced by the APC form antigenic peptide/MHC class II complexes which are transported to the cell surface. At the cell surface, the MHC class II molecules are contacted by the AE101 peptides, which cause the release of the antigenic peptide by the same mechanism proposed for the “peptide prepulse” assay above.
The “processed antigen assay” was carried out under essentially the same conditions as the “peptide prepulse assay”, with the following modifications. Untreated APC were incubated at 1×10^6/mL in 24-well plates (1 mL/well) with native protein antigen for 8 h. Following that incubation, the pulsed APC were washed, treated with mitomycin C, and washed again. AE101 series peptide was added at 64 μM, 16 μM, 4 μM, and 1 μM concentrations for 24 h in the presence of the T cell hybridoma specific for the antigenic peptide. Interleukin release from these cultures was measured by proliferation of HT-2 cells to interleukins in supernatants transferred from the primary culture. The baseline T cell response was measured by culturing T hybridoma cells with the native antigen-prepulsed APC in the absence of AE101 series peptides.
The “processed antigen assay” was carried out under essentially the same conditions as the “peptide prepulse” assay, with the following modifications. Untreated APC were incubated at 1×10^6/mL in 24-well plates (1 mL/well) with native protein antigen for 8 h. Following incubation, the pulsed APC were washed, treated with mitomycin C, and were washed again. The assay conditions were then as described for “peptide prepulse” above. The baseline T cell response was measured by culturing T hybridoma cells with the native antigen-prepulsed APC in the absence of AE101 peptides.
Table 2.9: Activities of substitution series at Leucine^80 in AE114 in a processed antigen assay. […] The results in this assay constitute, relatively, a mirror image of the result in the simultaneous assay (Example 1, Table 7) and parallel those of the antigenic peptide prepulse assay (Example 5, Table 24). Untreated APC were incubated with native HEL, instead of antigenic peptide, for 8 h. After incubation, the pulsed cells were washed and mitomycin C treated before being cocultured with AE-peptides and T cell hybridomas. Wells containing only T cells and native HEL-prepulsed APC were used to determine the Baseline response, or 1, in the absence of AE peptides. The concentration of AE peptide used was 64 μM for these assays. The supernatant dilutions used in the HT-2 cell assay were 1:4 (first value) and 1:8 (second value).

[2] = test system: murine E^k MHC class II allele; experiment: AE101 series peptide prepulse assay, E^k allele; type: cell-based; details: Table 35; AE101 series peptide prepulse 64 μM; antigenic peptide 0.4 μM; supernatant dilution 1:2
Protocol: (§1) Table 35: Activities of multiple substitution analogs of AE235, targeting the E^k and E^d allele, in an AE101 series peptide prepulse assay. In this assay the concentration of AE101 series peptides used during the prepulse was 64 μM. The concentrations of antigenic peptides were 0.3 μM for Ed and 0.4 μM for E^k. The supernatant dilutions taken into the HT-2 cell assay was 1:4 for E and 1:2 for E^k. The AE381 peptide is a head-to-tail cyclization: the amino terminal amino group is coupled through an amide linkage to the carboxyl terminal group. The AE 382 peptide is a side-to-tail cyclization: the epsilon amino group of Lys^4 is coupled through an amide linkage to the carboxyl terminal group.
(§2) AE101 series peptide prepulse assays were carried out in the E^d and E^k systems as described for simultaneous competition assays with the following modifications. Fixed APC were first incubated for 6 h at 1×10^6DMEM-5% FCS with 64 μM of each AE101 series peptide or with PBS. The APC were then washed four times with ten volumes of DMEM-5% FCS, and were cocultured with T hybridoma cells and the indicated submaximal doses of antigenic peptides used in the simultaneous competition assays. The baseline T cell response was measured by culturing T hybridoma cells with antigenic peptide and PBS-pretreated APC.

[3] = target: T1, murine E^d MHC class II allele; experiment: AE101 series peptide prepulse assay, E^d allele; type: cell-based; details: for T cell response relative to baseline with PBS-pretreated APC (NONE = 1.0), E^d: Table 35, AE101 series peptide prepulse 64 μM, antigenic peptide 0.3 μM, supernatant dilution 1:4
Protocol: as §1, §2

[4] = test system: HLA-DR1 molecules; experiment: exchange of biotinylated hMBP(90-102) into antigenic peptide-loaded HLA-DR1 (assay III); type: binding, human; details: Table 38; HLA-DR1 preloaded with unlabeled hMBP(90-102) 50 μM; exchange with biotin-labeled hMBP(90-102) 50 μM, 37° C., 1 h; fraction of positive control o.d.; no enhancement = 0.08
[5] = test system: HLA-DR1 molecules; experiment: release of biotin-labeled hMBP(90-102) from HLA-DR1 without unlabeled antigenic peptide (assay I); type: binding, human; details: Table 37, no unlabeled hMBP(90-102)

Substance: Ac-A[Cit]NKNPK-NH2 [AE351]
- T cell response relative to baseline (None = 1.00), E^d [1]: 0.87

Substance: Ac-FK HArg MYP Cit-NH2 [AE371]
- T cell response relative to baseline (None = 1.0), E^d [1]: 0.61

Substance: Ac-LK HArg KYPK-NH2 [AE363]
- T cell response relative to baseline (None = 1.0), E^d [1]: 0.75

Substance: Ac-LKMKYPK-NH2 [AE362]
- T cell response relative to baseline (None = 1.0), E^d [1]: 0.58

- T cell response relative to baseline with PBS-pretreated APC (NONE = 1.0), E^d [3]: 7.5
Substance: Ac-LR HArg KYP Cit-NH2 [AE366]
- T cell response relative to baseline with PBS-pretreated APC (NONE = 1.0), E^k [2]: 3.5
- T cell response relative to baseline (None = 1.0), E^d [1]: 0.53

Substance: Ac-LR HArg MYPK-NH2 [AE365]
- T cell response relative to baseline (None = 1.0), E^d [1]: 0.65

Substance: Ac-LR Orn K HArg PK-NH2 [AE340]
- T cell response relative to baseline (None = 1.00), E^d [1]: 0.16

Substance: Ac-LRLKYPN-NH2 [AE368]
- T cell response relative to baseline (None = 1.0), E^d [1]: 0.55

- T cell response relative to baseline with PBS-pretreated APC (NONE = 1.0), E^d [3]: 1.7
Substance: Ac-LRMKLPK (lactam 4-C) [AE382]
- T cell response relative to baseline with PBS-pretreated APC (NONE = 1.0), E^k [2]: 3.2
- Activity in processed antigen assay, E^d (baseline = 1.0) [1]: 0.61

Substance: Ac-LRMKNPF-NH2 [AE350]
- T cell response relative to baseline (None = 1.00), E^d [1]: 0.56

Substance: Ac-LRMKYPN-NH2 [AE370]
- T cell response relative to baseline (None = 1.0), E^d [1]: 0.55

Substance: Ac-LRMKYP[Cit]-NH2 [AE364]
- T cell response relative to baseline (None = 1.0), E^d [1]: 0.56

Substance: Ac-LRMMYP[Cit]-NH2 [AE367]
- T cell response relative to baseline (None = 1.0), E^d [1]: 0.69

Substance: Ac-L[hArg]LKYPK-NH2 [AE361]
- T cell response relative to baseline (None = 1.0), E^d [1]: 0.51

Substance: Ac-L[hArg]MKYPK-NH2 [AE360]
- T cell response relative to baseline (None = 1.0), E^d [1]: 0.64

Substance: cyclic LRMKLPK (bridge (positions not given here); also: cyclic, ring type not given here) [AE381, “head-to-tail” cyclization from the amino-terminus to the carboxyl-terminus of AE114]
- Relative Binding [4]: −0.12
- T cell response relative to baseline with PBS-pretreated APC (NONE = 1.0), E^k [2]: 0.3
- Activity in processed antigen assay, E^d (baseline = 1.0) [1]: 0.18
- T cell response relative to baseline with PBS-pretreated APC (NONE = 1.0), E^d [3]: 1.0
- activity in the AE101 series peptide prepulse assay, in words ([3]; text on Table 35, AE peptide prepulse 64 μM, E^d and E^k systems): potent suppressive activity
- Relative Release, Without unlabeled hMBP(90-102), 1 μM ([5]; AE101 series compound 1 μM): 0.64
- Relative Release, Without unlabeled hMBP(90-102), 64 μM ([5]; AE101 series compound 64 μM): 0.5
